Drawing on BindingDB's records for doi:10.1016/j.bmcl.2009.01.088 (Abbott Laboratories, 2009), this text covers IC50 for 1 compound.

pIC50: −log10 of the molar value.

In the assay the target is Mitogen-activated protein kinase kinase kinase 8 (Homo sapiens, UniProt P41279). Put plainly: COT HTRF Assay. The note with it: pH 7.5; 22 °C. The protocol: The COT direct HTRF assay was carried out using biotin-MEK1 as a substrate. The reaction was carried out in black 96 half-well plates. At designated time points, EDTA was added to quench the reaction. Detection reagents were then added to each well to make anti-phospho-MEK1-Eu antibody and SAXL. The plates were incubated, and then read using the RUBYstar HTRF reader.
Background: Time-resolved FRET reads energy transfer from a long-lived donor to a nearby acceptor.

Sequence of Mitogen-activated protein kinase kinase kinase 8 (P41279 whole entry): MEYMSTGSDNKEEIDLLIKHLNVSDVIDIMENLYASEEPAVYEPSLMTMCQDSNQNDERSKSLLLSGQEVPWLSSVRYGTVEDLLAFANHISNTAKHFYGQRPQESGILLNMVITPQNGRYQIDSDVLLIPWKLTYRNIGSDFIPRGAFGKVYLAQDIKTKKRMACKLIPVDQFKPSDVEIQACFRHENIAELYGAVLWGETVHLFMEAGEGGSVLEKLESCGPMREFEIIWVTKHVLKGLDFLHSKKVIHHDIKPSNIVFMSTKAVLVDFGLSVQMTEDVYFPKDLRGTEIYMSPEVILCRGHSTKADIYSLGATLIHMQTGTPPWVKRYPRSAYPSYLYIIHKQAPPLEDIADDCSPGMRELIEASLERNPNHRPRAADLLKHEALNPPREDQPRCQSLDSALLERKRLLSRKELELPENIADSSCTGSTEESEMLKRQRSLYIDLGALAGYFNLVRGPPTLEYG

As for `O=C(O)c1cc2c(Oc3ccc(I)cc3)cncc2s1`, the pIC50 is 6.00.

By pIC50 is commonly meant −log10 of the IC50, conventionally taken in molar units. Lower therefore signals a large IC50.
